We go through eleven compounds from ChEMBL document CHEMBL5226371, “Hyperhubeins A-I, Bioactive Sesquiterpenes with Diverse Skeletons from Hypericum hubeiense” (J Nat Prod, 2023).

SMILES strings stand for the structures. Active and inactive are the calls of the source. No cut-off for these calls is given here.

For series [1], the system named is PC-12. The experiment in a line: Neuroprotective activity against H2O2-induced cell injury in rat PC-12 cells assessed as increase in cell survival at 10 uM preincubated with compound for 24 hrs followed by H2O2 addition and measured after 24 hrs by MTT assay. Type of series: functional, cell-based. The following applies: time 48.0 hrs. In general terms: Formazan colour is commonly taken as a measure of viable cells.

Series [2] is described as follows: Inhibition of NO production in LPS-induced mouse BV-2 cells incubated for 24 hrs by Griess reagent based microplate reader analysis. Type of series: functional, cell-based. The following applies: BV-2, 24 h. A general note: Nitrite, measured by Griess reagent, commonly stands in for NO production.
The subject of series [3] is BV-2. The experiment in a line: Cytotoxicity against mouse BV-2 cells assessed as reduction in cell viability by MTT-based colorimetric method. The format is toxicity.
Series [4] relates to BV-2. The series is described as follows: Anti-neuroinflammatory activity in mouse BV-2 cells assessed as reduction in LPS-induced TLR-4 expression at 10 uM by Western blot analysis. Type of series: functional, cell-based.
The subject of series [5] is BV-2. The series is described as follows: Anti-neuroinflammatory activity in mouse BV-2 cells assessed as reduction in LPS-induced iNOS expression at 10 uM by Western blot analysis. The format is functional, cell-based.
Series [6] has as its system BV-2. The experiment in a line: Anti-neuroinflammatory activity in mouse BV-2 cells assessed as reduction in LPS-induced COX-2 expression at 10 uM by Western blot analysis. The format is functional, cell-based. (Immunoblotting shows a protein as a band on a membrane.)
Series [7] has as its system BV-2. The series is described as follows: Anti-neuroinflammatory activity in LPS-stimulated mouse BV-2 cells assessed as reduction in ratio of phosphorylated NF-kappaB to NFkappaB at 10 uM by Western blot analysis. Type of series: functional, cell-based.

Regarding `C=C1CC[C@H]2O[C@]2(C)CC[C@@H]2[C@@H]1CC2(C)C`, the outcome in series [1] was Active. In general, IC50 refers to the concentration needed to halve the response being measured. In series [2], `C=C1CCC(=O)[C@]2(C)CC[C@@H](C(C)C)[C@H](O)[C@@H]12` had a half-maximal inhibitory concentration (IC50) of 4.92 µM. Also, the Activity result in series [3] is listed as “Non-Toxic”. For the compound `CC1=CC[C@H](O)[C@@]2(C)CC[C@H](C(C)(C)O[C@@H]3O[C@H](CO)[C@@H](O)[C@H](O)[C@H]3O)C[C@@H]12`, the result in series [1] was Active. The compound `C=C(C)[C@@H]1CC(=O)C2=CC(=O)C[C@@H](C)[C@]2(C)C1` came in with a concentration for half-maximal inhibition (IC50) in series [2] of 6.23 µM. The Activity entry in series [3] is recorded as “Non-Toxic”. Further, the result in series [4], in series [5], in series [6] and in series [7] was Active. `C=C(CO[C@@H]1O[C@H](CO)[C@@H](O)[C@H](O)[C@H]1O)[C@@H]1CC[C@@]2(O)CCC[C@@H](C)[C@]2(C)C1`: the result in series [1] was Active. Take `C=C(C)[C@@H]1CCC2=C[C@H](OC)C[C@@H](C)[C@]2(C)C1`: in series [1], the outcome was Active. Turning to `C=C1CCC[C@H]2[C@@H]1[C@H](C(C)=O)C[C@H]2C(C)C`, the result in series [1] was Active. This compound returned a half-inhibitory concentration (IC50) in series [2] of 6.81 µM. In series [3], the Activity entry is “Non-Toxic”. In series [2], `O=c1c(O)c(-c2ccc(O)c(O)c2)oc2cc(O)cc(O)c12` [QUERCETIN] registered an IC50 of 6.5 µM. With `C=C(C)[C@@H]1CC[C@@]2(C)[C@H](O)CC[C@@](C)(O)[C@@H]2C1`, the outcome in series [1] was Active. For the compound `C=C1CCC[C@H]2[C@@H]1[C@@H](C(C)=O)C[C@H]2C(C)C`, the result in series [1] was Active. The compound also registered an IC50 in series [2] of 5.91 µM. In addition, the Activity result in series [3] is “Non-Toxic”. `C=C(C)[C@H]1CC[C@]2(C)O[C@H]2CC[C@@]2(C)O[C@@H]2C1`: the result in series [1] was Active.
